Experimental data published in patent US20250154169A1, “COMPOUNDS AND METHODS FOR MODULATING SPLICING” (REMIX THERAPEUTICS INC., priority 2021, published 2025).
Where “and” joins values, the source holds several entries; their conditions need not be identical. Equal entries are not always repeated. Where two headings read alike, the source gives them in different places.

Assays:
MYB = assay: Protein abundance, HiBit-assay system (Promega), MYB; assay type: cell-based; details: Table 6; HiBiT-modified K562 cells, 24 hours
Text: In some embodiments, a compound of Formula (I) or (II) or a pharmaceutically acceptable salt thereof, e.g., as described herein, modulates the expression of a target protein (e.g., HTT or MYB) in a reference cell or sample. In an embodiment, a compound of Formula (I) or (II) or a pharmaceutically acceptable salt thereof, e.g., as described herein, increases the expression of a target protein (e.g., HTT or MYB) in a reference cell or sample. In an embodiment, a compound of Formula (I) or (II) or a pharmaceutically acceptable salt thereof, e.g., as described herein, decreases the expression of a target protein (e.g., HTT or MYB) in a reference cell or sample. The effect of an exemplary compound of Formula (I) or (II) on protein abundance may be measured using a standard assay for measuring protein abundance, such as the HiBit-assay system (Promega). In this assay, percent response for each respective cell line may be as calculated at each compound concentration as follows: % response=100*(S−PC)/(NC−PC). For the normalized response at each concentration, a four-parameter logistical regression may be fit to the data and the response may be interpolated at the 50% value to determine a concentration for protein abundance at 50% (IC50) an untreated control. In an embodiment, a compound of Formula (I) or (II) or a pharmaceutically acceptable salt thereof, e.g., as described herein, has a protein abundance response less than 100 nM. In an embodiment, a compound of Formula (I) or (II) or a pharmaceutically acceptable salt thereof, e.g., as described herein, has a protein abundance response between 100-1000 nM. In an embodiment, a compound of Formula (I) or (II) or a pharmaceutically acceptable salt thereof, e.g., as described herein, has a protein abundance response greater than 1000 nM. In an embodiment, a compound of Formula (I) or (II) or a pharmaceutically acceptable salt thereof, e.g., as described herein, has a protein abundance response greater than 10 uM. In an embodiment, a compound of Formula (I) or (II) or a pharmaceutically acceptable salt thereof, e.g., as described herein, modulates the protein abundance of a target protein by about 1%, 5%, 10%, 15%, 20%, 25%, 30%, 35%, 40%, 45%, 50%, 55%, 60%, 65%, 70%, 75%, 80%, 85%, 90%, 95%, 99% or more, e.g., compared with a reference compound.

MYB mRNA = assay: Splicing RT-qPCR assay, MYB canonical (CJ) and alternative (AJ) junction mRNA; assay type: cell-based, human; details: Homo sapiens
How it was run: (§1)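 A673 or K562 cells were treated 24 h at 37 °C with an 11-point 3-fold compound dilution series (top 10 uM, DMSO ≤0.25%). Lysates went to one-step RT-qPCR measuring canonical (CJ) and alternative-exon (AJ) junction transcripts, normalized to GAPDH, GUSB or PPIA.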

SMN2 mRNA = assay: Splicing RT-qPCR gene panel, SMN2 canonical junction (CJ) mRNA; assay type: cell-based, human; details: Homo sapiens, Tables 4A/4B, read-out: SMN2 (IC50, decrease in CJ mRNA, gene panel)
How it was run: (§2)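 A673 or K562 cells were treated 24 h at 37 °C with an 11-point 3-fold dilution series (top 10 uM, ≤0.25% DMSO). Canonical-junction mRNA was measured in lysates by one-step RT-qPCR, normalized to GAPDH, GUSB or PPIA and DMSO control (2^(−ΔΔCt)), expressed as percentage response.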

Target C mRNA = assay: Splicing RT-qPCR gene panel, Target C canonical junction (CJ) mRNA; assay type: cell-based, human; details: Homo sapiens, Tables 4A/4B, read-out: Target C (IC50, decrease in CJ mRNA, gene panel)
How it was run: as §2

HTT mRNA [1] = assay: Splicing RT-qPCR gene panel, HTT canonical junction (CJ) mRNA; assay type: cell-based, human; details: Homo sapiens, Tables 4A/4B, read-out: HTT (IC50, decrease in CJ mRNA, gene panel)
How it was run: as §2

K562 cells = assay: Cell Titer Glo 2.0 cell viability assay, K562; assay type: cell-based; details: Homo sapiens, 72 hours incubation
Experimental: Compounds described herein were screened for toxicity in K562 (human chronic myelogenous leukemia) and SH-SY5Y (human neuroblastoma) cells using a Cell Titer Glo 2.0 assay.
• Promega CellTiter-Glo® 2.0 Cell Viability Assay (cat #G9241) • Corning 384-well TC-treated microplates (cat #3570)
Cells were plated at 500 cells/well (K562 cells) in 45 μL of IMDM supplemented with 10% FBS in a 384-well opaque plate. Wells containing only medium were used as a blank control. Test compounds (e.g., compounds of Formula (I) or (II)) were first serially diluted in DMSO then diluted 1:100 with EIDM+10% FBS. The final concentration of DMSO was 0.1% in each well. The cells were incubated for 72 hours at 37° C. and 5% CO2 before assaying with Cell Titer Glo 2.0 reagent.

HTT mRNA [2] = assay: Splicing RT-qPCR assay, HTT canonical (CJ) and alternative (AJ) junction mRNA; assay type: cell-based, human; details: Homo sapiens
How it was run: as §1

[3] = Tables 4A/4B, canonical junction qPCR panel, read-out: MYB (IC50, decrease in CJ mRNA, gene panel)
[4] = 24 h, A673 or K562 cells, 24 hours compound treatment, read-out: HTT CJ (IC50, decrease in canonical junction mRNA)
[5] = A673 or K562 cells, 24 hours compound treatment, read-out: HTT AJ (AC50, increase in alternative junction mRNA)
[6] = 24 h, A673 or K562 cells, 24 hours compound treatment, RT-qPCR, read-out: MYB AJ (AC50, increase in alternative junction mRNA)
[7] = 24 h, A673 or K562 cells, 24 hours compound treatment, RT-qPCR, read-out: MYB CJ (IC50, decrease in canonical junction mRNA)
[8] = Table 3B, alternative junction mRNA, read-out: HTT AJ (AC50, increase in AJ mRNA)
[9] = Table 3B, canonical junction mRNA, read-out: HTT CJ (IC50, decrease in CJ mRNA)
[10] = Table 3B, canonical junction mRNA, RT-qPCR, read-out: MYB CJ (IC50, decrease in CJ mRNA)
[11] = Table 3B, alternative junction mRNA, RT-qPCR, read-out: MYB AJ (AC50, increase in AJ mRNA)

| Structure (SMILES) | IC50 (MYB) | IC50 (MYB mRNA; [3]) [nM] | IC50 (SMN2 mRNA) [nM] | IC50 (Target C mRNA) [nM] | IC50 (HTT mRNA [1]) [nM] | GI50 (K562 cells) [nM] | IC50 (HTT mRNA [2]; [4]) [nM] | AC50 (HTT mRNA [2]; [5]) [nM] | AC50 (MYB mRNA; [6]) [nM] | IC50 (MYB mRNA; [7]) [nM] | AC50 (HTT mRNA [2]; [8]) [nM] | IC50 (HTT mRNA [2]; [9]) [nM] | IC50 (MYB mRNA; [10]) [nM] | AC50 (MYB mRNA; [11]) [nM] |
| --- | --- | --- | --- | --- | --- | --- | --- | --- | --- | --- | --- | --- | --- | --- |
| Cc1cn2cc(NC(=O)c3ccc(C4CCNCC4)c4oc(C)nc34)cc(F)c2n1 [Compound 187] | 100 to 1000 nM and < 100 nM | 100 to 1000 | < 100 | 1000 to 10000 | 100 to 1000 | 100 to 1000 |  |  |  |  |  |  |  |  |
| Cc1cn2cc(NC(=O)c3ccc(N(C)C4CCN(C)CC4)c4cc(C)oc34)cc(F)c2n1 [Compound 200] |  | 1000 to 10000 | < 100 | 1000 to 10000 | 1000 to 10000 | 1000 to 10000 | 1000 to 10000 | 1000 to 10000 | 1000 to 10000 | 1000 to 10000 |  |  |  |  |
| Cc1cn2cc(NC(=O)c3ccc(N4CCNCC4)c4cn(C(C)C)nc34)cc(F)c2n1 [Compound 290, N-{8-fluoro-2-methylimidazo[1,2-a]pyridin-6-yl}-2-isopropyl-4-(piperazin-1-yl)indazole-7-carboxamide] |  | 100 to 1000 | < 100 | > 10000 | > 10000 |  | > 10000 | > 10000 | 100 to 1000 | 100 to 1000 |  |  |  |  |
| Cc1cn2cc(NC(=O)c3ccc(N4CCNCC4)c4cn(C)nc34)cc(C)c2n1 [Compound 238] |  | 100 to 1000 | < 100 | > 10000 | 1000 to 10000 |  | 1000 to 10000 | 1000 to 10000 | 100 to 1000 | 100 to 1000 |  |  |  |  |
| Cc1cn2cc(NC(=O)c3ccc(N4CCC(NC(C)(C)C)C4)c4cn(C)nc34)cc(F)c2n1 (stereo not drawn) [Compound 249] |  | 100 to 1000 | < 100 | > 10000 | > 10000 |  | > 10000 | > 10000 | 100 to 1000 | 100 to 1000 |  |  |  |  |
| CCn1cc2c(N3CC[C@@H](N(C)C)C3)ccc(C(=O)Nc3cc(F)c4nc(C)cn4c3)c2n1 [Compound 407, (R)-4-(3-(dimethylamino)pyrrolidin-1-yl)-2-ethyl-N-(8-fluoro-2-methylimidazo[1,2-a]pyridin-6-yl)-2H-indazole-7-carboxamide] |  | 100 to 1000 | < 100 | > 10000 | > 10000 |  | > 10000 | > 10000 | 100 to 1000 | 100 to 1000 |  |  |  |  |
| CCn1cc2c(N3C[C@@H](C)N[C@@H](C)C3)ncc(C(=O)Nc3cc(F)c4nc(C)cn4c3)c2n1 [Compound 952] |  | 100 to 1000 | < 100 | 100 to 1000 | 100 to 1000 |  |  |  |  |  | 100 to 1000 | 100 to 1000 | 100 to 1000 | 100 to 1000 |
| Cc1cn2cc(NC(=O)c3ccc(N4CCC(N(C)C)CC4)c4csnc34)cc(F)c2n1 [Compound 979] |  | < 100 | < 100 | 1000 to 10000 | 100 to 1000 |  |  |  |  |  | 100 to 1000 | 100 to 1000 | < 100 | < 100 |
| COc1c(NC(=O)c2ccc(N3CCNCC3)c3nc(C)nn23)cn2cc(C)nc2c1F [Compound 949] |  | < 100 | < 100 | < 100 | < 100 |  |  |  |  |  | < 100 | < 100 | < 100 | < 100 |
| Cc1cn2cc(NC(=O)c3ccc(N4C[C@H]5CC[C@@H](C4)N5)c4cc(C)oc34)cc(F)c2n1 [Compound 255] |  | 100 to 1000 | < 100 | > 10000 | 1000 to 10000 |  | 1000 to 10000 | 1000 to 10000 | < 100 | 100 to 1000 |  |  |  |  |
| Cc1cn2nc(-c3ccc(C(=O)NC4CCNCC4)c4oc(C)cc34)cc(F)c2n1 [Compound 283] |  | 1000 to 10000 | 100 to 1000 | > 10000 | 1000 to 10000 |  | 1000 to 10000 | > 10000 | > 10000 | 1000 to 10000 |  |  |  |  |
